Test results as given in patent publication US20200121699A1, “COMBINATION THERAPIES COMPRISING IMMUNO-ONCOLOGY AGENTS AND BELINOSTAT” (ONXEO, priority 2016, published 2020).

Legend:
[1] = test system: Hepa129 murine hepatocellular carcinoma cells; experiment: Antitumor efficacy in subcutaneous Hepa129 hepatocellular carcinoma mouse model; type: in vivo, C3H mice; conditions: s.c. Hepa129 tumors, Beleodaq 90 mg/kg IP daily D7 to D27, antibodies 50 μg/mouse IP D7, D14
Method: As tumor model, Hepa129 murine hepatocellular carcinoma cells implanted subcutaneously in C3H mice were used. Hepa129 cells were maintained in culture up to 3 passages before injection in mice. Cells were sub-cultured three days before the day of injection.
The day of cell injection, Hepa129 cells were harvested and centrifuged at 1800 rpm for 5 min, and resuspended in PBS. Cells were counted in 0.04% Trypan Blue for viability quantification. Cells were resuspended in the adequate volume of PBS in order to have 10^6 cells in 100 μL. […] were subcutaneously injected into the right flank of mice.
When subcutaneous Hepa129 tumors reached a mean tumor diameter of about 5 mm (day 7), mice were allocated to treatment groups and identified individually by ear tags. Beleodaq® was administered IP daily at days 7 to 27 at 90 mg/kg. Antibodies Isotype control (2A3) and anti-CTLA-4 (9D9) (from BioXcell) were administered IP at days 7 and 14.
Treatment allocation were performed as follows for antitumor efficacy study:
Animals were monitored and sacrificed when tumor diameter reached 17 mm. Each experiment was carried out twice with n=8 animals per group.

[2] = test system: irradiated Hepa129 tumor cells; experiment: IFN-gamma ELISPOT of spleen cells from treated tumor-bearing mice stimulated with irradiated tumor cells; type: in vivo, C3H mice; conditions: 20-h ELISPOT, two-week treatment, versus the same antibody without Beleodaq
Method: Treatment allocation were performed as follows for immune characterization study:
A single experiment was carried out for each drug, using n=5 animals per group.
Lymphoid organs (spleen, lymph nodes) were obtained from sacrificed animals, homogenized and cell suspensions were used to measure the following parameters:
ELISPOT: measuring the number of IFN-gamma spot forming cells after co-culture of lymphocytes with irradiated Hepa129 tumor cells.
Tumor-bearing mice were treated during two weeks and sacrificed to obtain their spleen and analyze immune-related parameters. For these experiments mice received two antibody administrations (days 0 and 7) and Beleodaq® (daily) during the two-week treatment period.
Functional assays: Spleen cells were stimulated with irradiated tumor cells to analyze antitumor T cell responses measured as IFN-gamma production using a 20-h ELISPOT assay.

4T1 breast cancer cells = experiment: Orthotopic 4T1 breast cancer mouse model; type: in vivo, Balb/C mouse; conditions: 4T1 in mammary fat gland; belinostat 80 mg/kg i.p. daily from day 8; antibodies 200 μg/mouse i.p.
Method: The Belinostat treatment was formulated every one or two day.
The aPD1 treatment solutions were prepared on the days of the treatment (days 8, 12, 16 and 20).
The aCTLA4 treatment solutions were prepared on days 7, 11, 16 and 20 and stored at 4° C.
4T1 breast cancer cells (5*10^5 cells per Balb/C mouse) were in occulated in the mammary fat gland of Balb/C females. The 4T1 (ATCC CRL-2539) cells were bought from ATCC and cultured in RPMI-1640 Medium containing 10% fetal bovine serum. Cells were passaged 5-10 times before in inoculation. Cells were detached with trypsin, washed twice in PBS, centrifuged and resuspended in PBS. Cell viability was checked by a staining with […] and cells were used when viability was higher than 95%. Cells were counted manually and adjusted to 5*10^6 cells per ml. Finally 100 μl were injected.

Structure (SMILES): O=C(/C=C/c1cccc(S(=O)(=O)Nc2ccccc2)c1)NO [Beleodaq®, (2E)-N-hydroxy-3-[3-(phenylsulfamoyl)phenyl]prop-2-enamide]
- tumor growth [1]: did not modify
- animal survival ([1]; sacrificed when tumor diameter reached 17 mm): did not modify
- antitumor T cell responses measured as IFN-gamma production [2]: no significant differences
- apparent external tumor size (4T1 breast cancer cells): reduced
- mortality (4T1 breast cancer cells): reduced
